Laboratory results as given in patent US11833162B2, “Macrocyclic derivatives, process for preparing same and pharmaceutical compositions containing same” (LES LABORATOIRES SERVIER, priority 2017, dated 2023).

Experiments:
Bcl-2 protein = Bcl-2 protein (histag-Bcl-2, UniProtKB P10415) (Homo sapiens, UniProt P10415); assay: Inhibition of Bcl-2 by the fluorescence polarisation technique; assay type: binding; conditions: fluorescence polarisation, 2 hours incubation; read-out: IC50 (μM) Bcl-2 FP
Experimental: The fluorescence polarisation tests were carried out on microplates (384 wells). The Bcl-2 protein, labelled (histag-Bcl-2 such that Bcl-2 corresponds to the UniProtKB® primary accession number: P10415), at a final concentration of 5×10^−9M, is mixed with a fluorescent peptide (Fluorescein-REIGAQLRRMADDLNAQY), at a final concentration of 1.00×10^−9M in a buffer solution (Hepes 10 mM, NaCl 150 mM, Tween20 0.05%, pH 7.4), in the presence or absence of increasing concentrations of test compounds. After incubation for 2 hours, the fluorescence polarisation is measured.

[1] = system: RS4; 11 leukaemia tumour line; assay: In vitro cytotoxicity, Microculture Tetrazolium Assay (MTT); assay type: cell-based; conditions: Homo sapiens, RS4-11, 48 h, 11 cells, 48 hours exposure
Experimental: The cytotoxicity studies were carried out on the RS4; 11 leukaemia tumour line.
The cells are distributed onto microplates and exposed to the test compounds for 48 hours.
The cell viability is then quantified by a colorimetric assay, the Microculture Tetrazolium Assay (Cancer Res., 1987, 47, 939-942).

[2] = system: cleaved (activated) form of caspase 3 in RS4; 11 tumour lysates; assay: Quantification of the cleaved form of caspase 3 in vivo (MSD ELISA) in RS4; 11 xenograft; parameters: species or system mice (SCID strain); key: ratio of cleaved caspase 3, treated vs control mice; conditions: oral, 2 hours' treatment
Experimental: The ability of the compounds of the invention to activate caspase 3 is evaluated in a xenograft model of RS4; 11 leukaemia cells. 1×10^7 RS4; 11 cells are grafted sub-cutaneously into immunosuppressed mice (SCID strain). 25 to 30 days after the graft, the animals are treated orally with the various compounds. After 2 hours' treatment, the tumour masses are recovered and lysed, and the cleaved (activated) form of caspase 3 is quantified in the tumour lysates. This quantification is carried out using the “Meso Scale Discovery (MSD) ELISA platform” test, which specifically assays the cleaved form of caspase 3. It is expressed in the form of an activation factor corresponding to the ratio between the quantity of cleaved caspase 3 in the treated mice divided by the quantity of cleaved caspase 3 in the control mice.

Bcl-2 protein, sequence (P10415 whole entry): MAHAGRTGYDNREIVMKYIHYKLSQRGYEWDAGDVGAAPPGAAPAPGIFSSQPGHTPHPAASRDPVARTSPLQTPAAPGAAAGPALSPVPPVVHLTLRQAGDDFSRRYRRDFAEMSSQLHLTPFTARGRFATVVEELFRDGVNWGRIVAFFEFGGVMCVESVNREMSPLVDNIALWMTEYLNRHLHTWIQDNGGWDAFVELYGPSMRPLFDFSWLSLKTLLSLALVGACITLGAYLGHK

Row | SMILES | IC50 (Bcl-2 protein) | IC50 [1] | Activation factor ± SEM (versus control) ([2]; 12.5 mg/kg, PEG/EtOH/Watcr) | Activation factor ± SEM (versus control) ([2]; 25 mg/kg, PEG/EtOH/Water) | Activation factor ± SEM (versus control) ([2]; 50 mg/kg, PEG/EtOH/Water) | Activation factor ± SEM (versus control) ([2]; 6.25 mg/kg, PEG/EtOH/Phosal) | Activation factor ± SEM (versus control) ([2]; 12.5 mg/kg, PEG/EtOH/Phosal) | Activation factor ± SEM (versus control) ([2]; 25 mg/kg, PEG/EtOH/Phosal) | Activation factor ± SEM (versus control) ([2]; 50 mg/kg, PEG/EtOH/Phosal)
1 | Cc1c2cc(n1C)-c1cc(Cl)ccc1C(=O)N1CCc3c(cccc3OCCCc3c(cnn3C)N(c3ccc(O)cc3)C2=O)C1 [Example 6, 11-Chloro-4-(4-hydroxyphenyl)-1,7,8-trimethyl-4,16,17,23,24,25-hexahydro-1H,14H-15,18-methano-6,9-(metheno)dibenzo[b,h]pyrazolo[4,3-p]-[1,6,11,15]oxatriazacycloicosine-5,14(8H)-dione] | 0.0052 µM | 26.6 nM | 6.8 ± 4.2 | 32.3 ± 9.1 |  |  |  |  | 
2 | Cc1c2cc(n1C)-c1cc(Cl)ccc1C(=O)N1CCc3c(cccc3OCCc3c(cnn3C)N(c3ccc(O)cc3)C2=O)C1 [Example 16, 11-chloro-4-(4-hydroxyphenyl)-1,7,8-trimethyl-1,4,16,17,23,24-hexahydro-14H-15,18-methano-6,9-(metheno)dibenzo[l,r]pyrazolo[3,4-d][1,6,10,15]oxatriaza-cyclononadecine-5,14(8H)-dione] | 0.00555 µM | 53.3 nM |  | 31.7 ± 2.9 | 75.1 ± 13.2 |  |  |  | 
3 | Cc1c2cc(n1C)-c1cc(Cl)ccc1C(=O)N1CCc3c(cccc3OCCCc3c(cc(C#N)n3C)N(c3ccc(O)cc3)C2=O)C1 [Example 18, 11-Chloro-4-(4-hydroxyphenyl)-1,7,8-trimethyl-5,14-dioxo-4,5,8,16,17,23,24,25-octahydro-1H,14H-15,18-methano-6,9-(metheno)dibenzo[b,h]-pyrrolo[3,2-p][1,6,11,15]oxatriazacycloicosine-2-carbonitrile] | 0.00365 µM | 8.36 nM |  |  |  | 7.8 ± 2.5 | 31.7 ± 6.0 |  | 
4 | Cc1c(N2C(=O)c3cc(n(C)c3C)-c3cc(Cl)ccc3C(=O)N3CCCC(CCOc4cc(O)ccc42)C3)cc(C#N)n1C (stereo not drawn) [Example 29, 4-[16-Chloro-3-hydroxy-19,20-dimethyl-13,22-dioxo-6,7,8,9,10,11,19,22-octahydro-13H,23H-8,12-methano-21,18-(metheno)dibenzo[b,j][1,4,8,13]oxatriazacyclo-nonadecin-23-yl]-1,5-dimethyl-1H-pyrrole-2-carbonitrile] |  | 70.5 nM |  |  |  |  |  | 13.3 ± 6.3 | 54.4 ± 9.7
